Where two headings read alike, the source gives them in different places.
Tests used:
[1] = known stabilizer, in words; cited from earlier work
mice [2] = conditions: known stabilizer, in words; cited from earlier work
[3] = Static thermostability of stabilized polyvinyl chloride resin, GARDNER Scale comparator, 185° C.; conditions: 185° C. and 210° C. trials, in words
Description: The stabilizing power of the substances of the invention was studied by determining the static thermostability of the following resin: […]
Polyvinyl chloride resin
Calcium-12-hydroxy-stearate
Stabilizer from 0.1 to 1
SL 2016 represents a solution of zinc-2-ethyl-hexanoate in a mixture of aromatic hydrocarbons boiling between 158° and 184° C.
The different ingredients were mixed and calendered in a mixer of which the cylinders were heated to 160° C.
The rigid sheets so obtained were then heated in a oven to a temperature of 185° or 210° C., until incipient carbonization.
A oven with a rotating drum, ventilated and equipped with a thermostat was used for this operation.
In the trials described hereunder the behaviour of the sheets containing one of the stabilizers to be tested was compared to that of sheets of the same formula but containing 2-phenyl-indole as stabilizer.
Comparison can be made by one of two methods, namely:
(1) The coloration of the sheets, of which samples were removed from the oven at fixed intervals, was compared to a standard scale of coloration, known as the GARDNER Scale, and expressed in terms of the reference figures of the GARDNER Scale.
Comparisons were made with a GARDNER Scale comparator which contains 18 filters of colored glass and which offers the possibility of observing simultaneously by transparency and in a limited field of view both the sheet and the reference filters.
It may happen that the color of the sheets is far removed from that of the GARDNER Scale, in which case comparison is difficult, if not impossible.
The following results were obtained at a temperature of 185° C., using the method described above: […]

[4] = water; for Extractibility compared with 2-phenyl-indole: in words
Description: This study was carried out in accordance with the requirements of the Food and Drug Administration (U.S.A.).
The extractions were performed in semi-rigid bottles, prepared with the resin of which the composition is given below, and with the following solvents: water, ethanol-water 50/50, an aqueous solution of acetic acid (3%) and finally heptane.
The ratio of the volume of solvent to the surface of plastic material exposed to extraction was about 1 to 100ml of solvent, taking into account the geometric characteristics of the bottles.
Heating A thermostated oven for the non-inflammable
solvents (water and acetic acid).
A thermostated water-bath for the inflammable
solvents (alcohol and heptane).
The quantity of stabilizer extracted was determined by colorimetric assay using p-dimethylaminobenzaldehyde, in accordance with the method described in Analytical Chemistry 36,425-26 (1964).
Results are expressed in μg of stabilizer extracted per litre of extraction solvent or, which is the same per 1000cm^2 of surface extracted.

[5] = Acute toxicity (LD50 / LDO), oral route, mice; type: in vivo; conditions: mouse, in vivo
Description: (§1) The toxicity of the stabilizers of the invention was studied first and the satisfactory results obtained were such as to justify continuation of the investigation.
(§2) The acute toxicity (LD50) of the stabilizers listed below was measured by determining the dose of substance which provoked the death of 50% of the animals treated.
(§3) A gummy suspension of the substance under study was administered by oral route to groups of at least ten mice and the following results were observed: […]

mice [6] = assay: Acute toxicity (LD50 / LDO), oral route, mice; type: in vivo
Description: as §1, §2, §3

c1ccc(-c2cc3ccccc3[nH]2)cc1 [2-phenyl-indole]
Stabilizing power [1]: good stabilizing power | Toxicity (mice [2]): low toxicity

COc1ccc2cc(-c3ccccc3)[nH]c2c1 [Stabilizer 1, 2-phenyl-6-methoxy-indole]
Stabilizing power compared with 2-phenyl-indole [3]: superior to 2-phenyl-indole

Oc1ccc2cc(-c3ccccc3)[nH]c2c1 [Stabilizer 2, 2-phenyl-6-hydroxy-indole]
Stabilizing power compared with 2-phenyl-indole [3]: superior to 2-phenyl-indole | Extractibility, times less than 2-phenyl-indole [4]: at least 10 times | Extractibility compared with 2-phenyl-indole [4]: markedly superior to 2-phenyl-indole

CCCCCCCCCCCCOc1ccc2[nH]c(-c3ccccc3)cc2c1 [Stabilizer 3, 2-phenyl-5-dodecyloxy-indole]
LD50 [5]: > 5000 mg/kg | Toxic symptoms (mice [6]; LD50 table): none | Stabilizing power compared with 2-phenyl-indole [3]: superior to 2-phenyl-indole | Extractibility compared with 2-phenyl-indole ([4]; aqueous ethanol and heptane): markedly less extractible than 2-phenyl-indole

COc1ccc(-c2cc3cc(C)ccc3[nH]2)cc1 [Stabilizer 4, 2-(4'-methoxy-phenyl)-5-methyl-indole]
LDO (maximal dose which does not provoke any death) (mice [6]): > 500 mg/kg | Toxic symptoms (mice [6]; LDO table): none | Stabilizing power compared with 2-phenyl-indole [3]: superior to 2-phenyl-indole

COc1ccc(-c2cc3cccc(C)c3[nH]2)cc1 [Stabilizer 5, 2-(4'-methoxy-phenyl)-7-methyl-indole]
Stabilizing power compared with 2-phenyl-indole [3]: superior to 2-phenyl-indole

COc1ccc(-c2cc3ccc(C)cc3[nH]2)cc1 [Stabilizer 6, 2-(4'-methoxy-phenyl)-6-methyl-indole]
LD50 [5]: > 3000 mg/kg | Toxic symptoms (mice [6]; LD50 table): none | Stabilizing power compared with 2-phenyl-indole [3]: superior to 2-phenyl-indole

COc1cc(-c2cc3cccc(C)c3[nH]2)ccc1O [Stabilizer 8, 2-(3'-methoxy-4'-hydroxy-phenyl)-7-methyl-indole]
Stabilizing power compared with 2-phenyl-indole [3]: superior to 2-phenyl-indole

CCCCCCCCCCCCOc1ccc(-c2cc3ccc(C)cc3[nH]2)cc1 [Stabilizer 12, 2-(4'-dodecyloxy-phenyl)-6-methyl-indole]
Stabilizing power compared with 2-phenyl-indole [3]: superior to 2-phenyl-indole | Extractibility compared with 2-phenyl-indole ([4]; aqueous ethanol and heptane): markedly less extractible than 2-phenyl-indole

CCCCCCCCCCCCOc1ccc(-c2cc3ccc(C)cc3[nH]2)cc1 [Stabilizer 12]
LD50 [5]: > 3000 mg/kg | Toxic symptoms (mice [6]; LD50 table): none

COc1cc(-c2cc3ccc(C)cc3[nH]2)ccc1O [Stabilizer 13, 2(3'-methoxy-4'-hydroxy-phenyl)6-methyl-indole]
Stabilizing power compared with 2-phenyl-indole [3]: superior to 2-phenyl-indole

CCCCCCCCCCCCOc1ccc(-c2cc3cccc(C)c3[nH]2)cc1C [Stabilizer 14, 2-(3'-methyl-4'-dodecyloxy-phenyl)-7-methyl-indole]
Extractibility compared with 2-phenyl-indole ([4]; aqueous ethanol and heptane): markedly less extractible than 2-phenyl-indole

COc1cc(-c2cc3cc(C)ccc3[nH]2)ccc1O [Stabilizer 15, 2(3'-methoxy-4'-hydroxy-phenyl)-5-methyl-indole]
Stabilizing power compared with 2-phenyl-indole [3]: superior to 2-phenyl-indole

Oc1ccc2[nH]c(-c3ccccc3)cc2c1 [Stabilizer 19, 2-phenyl-5-hydroxy-indole]
Stabilizing power compared with 2-phenyl-indole [3]: superior to 2-phenyl-indole

Oc1ccc2[nH]c(-c3ccccc3)cc2c1 [Stabilizer 19]
LDO (maximal dose which does not provoke any death) (mice [6]): > 500 mg/kg | Toxic symptoms (mice [6]; LDO table): none
